Results: the kinase profiling compilation of Christmann-Franck et al. (2016)

Key:
Experiment in all cases: KINOMEscan competition binding
Conditions in all cases: compound 10.0 µM
AXL (human) = AXL (human) (UniProt P30530)
BMPR1B (human) = BMPR1B (human) (UniProt O00238)
BRSK1 (human) = BRSK1 (human) (UniProt Q8TDC3)
CASK (human) = CASK (human) (UniProt O14936)
CDK4 CCND1 (human) = CDK4 CCND1 (human) (UniProt P11802+P24385)
CDKL1 (human) = CDKL1 (human) (UniProt Q00532)
DDR1 (human) = DDR1 (human) (UniProt Q08345)
DDR2 (human) = DDR2 (human) (UniProt Q16832)
DSTYK (human) = DSTYK (human) (UniProt Q6XUX3)
[1] = test system: EGFR (human), P00533 [747-751 del / S ins]
EPHA4 (human) = EPHA4 (human) (UniProt P54764)
EPHA8 (human) = EPHA8 (human) (UniProt P29322)
ERN1 (human) = ERN1 (human) (UniProt O75460)
[2] = test system: FLT3 (human), P36888 [R834Q]
IKBKB (human) = IKBKB (human) (UniProt O14920)
[3] = molecular target: JAK1 JH2 pseudokinase (human) (UniProt P23458)
KDR (human) = KDR (human) (UniProt P35968)
LIMK1 (human) = LIMK1 (human) (UniProt P53667)
MAK (human) = MAK (human) (UniProt P20794)
MAP2K7 (human) = MAP2K7 (human) (UniProt O14733)
MAP4K3 (human) = MAP4K3 (human) (UniProt Q8IVH8)
MAP4K5 (human) = MAP4K5 (human) (UniProt Q9Y4K4)
MAPK12 (human) = MAPK12 (human) (UniProt P53778)
MAPK13 (human) = MAPK13 (human) (UniProt O15264)
MAPK15 (human) = MAPK15 (human) (UniProt Q8TD08)
MAPK7 (human) = MAPK7 (human) (UniProt Q13164)
MARK3 (human) = MARK3 (human) (UniProt P27448)
MERTK (human) = MERTK (human) (UniProt Q12866)
NEK2 (human) = NEK2 (human) (UniProt P51955)
NEK4 (human) = NEK4 (human) (UniProt P51957)
NTRK2 (human) = NTRK2 (human) (UniProt Q16620)
NTRK3 (human) = NTRK3 (human) (UniProt Q16288)
PLK1 (human) = PLK1 (human) (UniProt P53350)
SIK2 (human) = SIK2 (human) (UniProt Q9H0K1)
SIK3 (human) = SIK3 (human) (UniProt Q9Y2K2)
SLK (human) = SLK (human) (UniProt Q9H2G2)
SRPK1 (human) = SRPK1 (human) (UniProt Q96SB4)
STK25 (human) = STK25 (human) (UniProt O00506)
TLK2 (human) = TLK2 (human) (UniProt Q86UE8)
YSK4 (human) = YSK4 (human) (UniProt Q56UN5)

Sequence of SLK (human) (Q9H2G2 whole entry, looked up): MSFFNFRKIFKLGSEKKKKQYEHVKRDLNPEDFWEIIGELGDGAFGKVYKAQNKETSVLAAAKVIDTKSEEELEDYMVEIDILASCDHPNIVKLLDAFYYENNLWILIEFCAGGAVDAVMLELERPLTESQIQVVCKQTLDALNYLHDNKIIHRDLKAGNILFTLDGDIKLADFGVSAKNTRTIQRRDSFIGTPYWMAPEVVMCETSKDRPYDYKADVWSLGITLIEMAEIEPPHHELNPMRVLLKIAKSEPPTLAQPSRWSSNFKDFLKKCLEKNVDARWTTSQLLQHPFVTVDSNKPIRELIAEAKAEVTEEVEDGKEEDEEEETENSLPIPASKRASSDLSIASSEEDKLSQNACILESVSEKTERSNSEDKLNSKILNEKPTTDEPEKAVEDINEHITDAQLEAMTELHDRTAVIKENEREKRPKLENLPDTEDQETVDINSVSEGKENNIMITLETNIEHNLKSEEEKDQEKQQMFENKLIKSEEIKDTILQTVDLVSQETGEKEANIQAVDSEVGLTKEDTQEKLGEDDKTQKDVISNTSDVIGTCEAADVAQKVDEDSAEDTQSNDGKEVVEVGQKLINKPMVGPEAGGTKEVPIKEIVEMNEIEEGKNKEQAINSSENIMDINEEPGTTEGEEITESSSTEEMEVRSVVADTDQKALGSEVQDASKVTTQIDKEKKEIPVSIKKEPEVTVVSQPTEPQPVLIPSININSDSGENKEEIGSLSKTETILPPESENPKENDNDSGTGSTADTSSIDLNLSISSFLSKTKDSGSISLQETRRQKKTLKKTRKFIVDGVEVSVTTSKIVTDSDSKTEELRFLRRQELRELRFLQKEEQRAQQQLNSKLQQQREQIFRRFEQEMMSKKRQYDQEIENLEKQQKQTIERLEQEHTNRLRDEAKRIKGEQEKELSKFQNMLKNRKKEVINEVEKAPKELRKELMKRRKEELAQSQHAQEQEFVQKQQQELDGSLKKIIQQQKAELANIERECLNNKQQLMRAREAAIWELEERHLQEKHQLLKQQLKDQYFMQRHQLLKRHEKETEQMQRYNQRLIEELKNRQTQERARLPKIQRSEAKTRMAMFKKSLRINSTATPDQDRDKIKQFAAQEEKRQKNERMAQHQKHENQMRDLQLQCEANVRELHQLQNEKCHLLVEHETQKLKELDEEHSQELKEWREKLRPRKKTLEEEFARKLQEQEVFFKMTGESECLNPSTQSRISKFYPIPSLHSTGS
Sequence of MAP4K3 (human) (Q8IVH8 whole entry, looked up): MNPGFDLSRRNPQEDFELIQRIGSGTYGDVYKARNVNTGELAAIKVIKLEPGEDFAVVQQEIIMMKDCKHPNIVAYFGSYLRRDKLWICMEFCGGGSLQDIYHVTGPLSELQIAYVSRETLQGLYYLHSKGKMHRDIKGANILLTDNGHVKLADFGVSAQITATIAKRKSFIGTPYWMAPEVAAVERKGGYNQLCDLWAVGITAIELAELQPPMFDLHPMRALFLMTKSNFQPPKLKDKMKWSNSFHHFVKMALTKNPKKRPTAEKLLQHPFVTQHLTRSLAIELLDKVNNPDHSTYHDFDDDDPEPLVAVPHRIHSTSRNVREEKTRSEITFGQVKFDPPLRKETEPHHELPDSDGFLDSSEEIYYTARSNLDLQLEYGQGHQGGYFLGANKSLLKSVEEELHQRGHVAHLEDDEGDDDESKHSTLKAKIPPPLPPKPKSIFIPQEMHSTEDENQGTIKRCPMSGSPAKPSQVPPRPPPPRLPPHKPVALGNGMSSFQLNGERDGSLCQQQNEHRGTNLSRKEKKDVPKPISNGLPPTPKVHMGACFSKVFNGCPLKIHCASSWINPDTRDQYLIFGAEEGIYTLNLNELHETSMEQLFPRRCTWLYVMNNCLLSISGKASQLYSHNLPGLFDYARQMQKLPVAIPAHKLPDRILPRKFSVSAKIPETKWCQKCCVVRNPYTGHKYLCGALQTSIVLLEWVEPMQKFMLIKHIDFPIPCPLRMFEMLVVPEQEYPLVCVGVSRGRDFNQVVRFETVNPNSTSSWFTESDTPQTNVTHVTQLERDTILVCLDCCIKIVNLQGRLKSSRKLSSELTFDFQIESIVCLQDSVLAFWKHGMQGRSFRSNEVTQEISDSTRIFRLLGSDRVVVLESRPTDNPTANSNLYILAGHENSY
Sequence of CASK (human) (O14936 whole entry, looked up): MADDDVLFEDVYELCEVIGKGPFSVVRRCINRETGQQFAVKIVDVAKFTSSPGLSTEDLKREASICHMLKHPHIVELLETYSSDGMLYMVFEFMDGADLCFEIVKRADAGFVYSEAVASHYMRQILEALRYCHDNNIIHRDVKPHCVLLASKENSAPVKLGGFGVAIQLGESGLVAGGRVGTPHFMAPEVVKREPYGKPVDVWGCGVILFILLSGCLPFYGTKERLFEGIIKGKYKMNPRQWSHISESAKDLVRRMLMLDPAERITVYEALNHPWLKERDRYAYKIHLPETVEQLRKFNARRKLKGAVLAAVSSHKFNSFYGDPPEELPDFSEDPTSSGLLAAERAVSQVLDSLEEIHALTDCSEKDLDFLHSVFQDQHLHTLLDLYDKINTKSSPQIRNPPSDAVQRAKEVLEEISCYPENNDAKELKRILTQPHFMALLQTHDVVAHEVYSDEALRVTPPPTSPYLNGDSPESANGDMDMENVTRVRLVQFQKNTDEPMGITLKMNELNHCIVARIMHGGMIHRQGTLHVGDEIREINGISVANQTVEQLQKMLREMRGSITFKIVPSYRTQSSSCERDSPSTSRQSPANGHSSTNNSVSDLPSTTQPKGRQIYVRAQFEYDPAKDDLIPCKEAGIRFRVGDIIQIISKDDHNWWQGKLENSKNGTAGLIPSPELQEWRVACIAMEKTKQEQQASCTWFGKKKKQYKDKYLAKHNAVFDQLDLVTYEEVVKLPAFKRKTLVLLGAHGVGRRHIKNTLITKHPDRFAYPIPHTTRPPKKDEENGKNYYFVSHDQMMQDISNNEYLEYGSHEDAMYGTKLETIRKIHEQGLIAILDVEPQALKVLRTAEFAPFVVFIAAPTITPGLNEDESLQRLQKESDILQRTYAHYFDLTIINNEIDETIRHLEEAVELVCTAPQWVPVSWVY
Sequence of DDR1 (human) (Q08345 whole entry, looked up): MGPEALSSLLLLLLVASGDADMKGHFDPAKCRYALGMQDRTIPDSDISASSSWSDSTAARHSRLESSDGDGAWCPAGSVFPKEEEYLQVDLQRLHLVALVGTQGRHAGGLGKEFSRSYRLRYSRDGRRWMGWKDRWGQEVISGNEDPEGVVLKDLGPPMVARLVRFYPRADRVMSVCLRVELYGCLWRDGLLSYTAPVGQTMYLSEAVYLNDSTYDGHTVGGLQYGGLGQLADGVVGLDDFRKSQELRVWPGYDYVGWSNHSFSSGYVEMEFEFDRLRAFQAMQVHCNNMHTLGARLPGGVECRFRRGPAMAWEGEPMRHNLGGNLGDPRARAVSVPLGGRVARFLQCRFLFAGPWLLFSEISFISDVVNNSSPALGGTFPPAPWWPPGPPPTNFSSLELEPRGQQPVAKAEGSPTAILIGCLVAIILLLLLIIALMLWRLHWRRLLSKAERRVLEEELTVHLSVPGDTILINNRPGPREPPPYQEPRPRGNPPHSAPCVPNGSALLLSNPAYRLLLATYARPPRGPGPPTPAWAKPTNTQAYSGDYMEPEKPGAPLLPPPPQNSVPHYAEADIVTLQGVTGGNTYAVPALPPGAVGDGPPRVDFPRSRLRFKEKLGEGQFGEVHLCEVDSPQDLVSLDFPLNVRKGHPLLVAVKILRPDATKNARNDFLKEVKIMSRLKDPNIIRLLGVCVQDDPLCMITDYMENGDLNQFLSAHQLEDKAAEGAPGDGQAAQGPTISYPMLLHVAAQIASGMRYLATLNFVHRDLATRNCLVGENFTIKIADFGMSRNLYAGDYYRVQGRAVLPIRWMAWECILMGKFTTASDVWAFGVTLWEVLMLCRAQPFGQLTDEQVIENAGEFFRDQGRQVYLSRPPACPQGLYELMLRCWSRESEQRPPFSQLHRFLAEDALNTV
Sequence of MAP2K7 (human) (O14733 whole entry, looked up): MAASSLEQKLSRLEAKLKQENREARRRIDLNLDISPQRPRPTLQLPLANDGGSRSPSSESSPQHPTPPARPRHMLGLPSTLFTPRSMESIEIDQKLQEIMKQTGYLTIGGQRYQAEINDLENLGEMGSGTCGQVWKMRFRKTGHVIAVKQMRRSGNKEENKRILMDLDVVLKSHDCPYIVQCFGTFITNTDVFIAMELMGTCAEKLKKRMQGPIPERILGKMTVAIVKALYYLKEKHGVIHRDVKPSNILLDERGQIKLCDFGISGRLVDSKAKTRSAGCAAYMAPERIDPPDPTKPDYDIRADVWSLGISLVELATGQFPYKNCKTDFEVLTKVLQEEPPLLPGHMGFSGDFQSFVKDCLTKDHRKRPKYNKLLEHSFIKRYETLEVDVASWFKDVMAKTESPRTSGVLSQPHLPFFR
Sequence of SRPK1 (human) (Q96SB4 whole entry, looked up): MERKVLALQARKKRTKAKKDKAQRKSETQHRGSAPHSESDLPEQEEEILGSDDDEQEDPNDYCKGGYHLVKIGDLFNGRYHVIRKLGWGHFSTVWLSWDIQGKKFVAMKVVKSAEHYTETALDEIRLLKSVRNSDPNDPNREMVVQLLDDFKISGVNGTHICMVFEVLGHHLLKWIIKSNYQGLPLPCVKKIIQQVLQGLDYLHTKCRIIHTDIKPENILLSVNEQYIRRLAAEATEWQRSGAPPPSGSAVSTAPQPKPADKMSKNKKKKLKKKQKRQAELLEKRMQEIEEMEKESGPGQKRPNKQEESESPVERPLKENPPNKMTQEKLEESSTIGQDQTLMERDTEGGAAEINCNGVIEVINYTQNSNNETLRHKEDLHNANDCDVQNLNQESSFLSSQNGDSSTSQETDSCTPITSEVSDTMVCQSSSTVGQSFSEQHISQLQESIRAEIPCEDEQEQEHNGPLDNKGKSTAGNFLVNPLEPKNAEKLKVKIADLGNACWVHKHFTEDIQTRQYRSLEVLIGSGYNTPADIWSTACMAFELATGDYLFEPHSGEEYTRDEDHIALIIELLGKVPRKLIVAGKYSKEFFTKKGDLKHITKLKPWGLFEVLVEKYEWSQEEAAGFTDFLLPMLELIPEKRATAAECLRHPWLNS

C=CC(=O)Nc1cc(-n2c(=O)ccc3cnc4ccc(-c5cn[nH]c5)cc4c32)ccc1C
kinase still bound, per cent of control (AXL (human)): 100%
kinase still bound, per cent of control (BMPR1B (human)): 73%
kinase still bound, per cent of control (BRSK1 (human)): 82%
kinase still bound, per cent of control (CASK (human)): 58%
kinase still bound, per cent of control (CDK4 CCND1 (human)): 100%
kinase still bound, per cent of control (CDKL1 (human)): 33%
kinase still bound, per cent of control (DDR1 (human)): 67%
kinase still bound, per cent of control (DDR2 (human)): 75%
kinase still bound, per cent of control (DSTYK (human)): 70%
kinase still bound, per cent of control [1]: 63%
kinase still bound, per cent of control (EPHA4 (human)): 97%
kinase still bound, per cent of control (EPHA8 (human)): 96%
kinase still bound, per cent of control (ERN1 (human)): 50%
kinase still bound, per cent of control [2]: 12%
kinase still bound, per cent of control (IKBKB (human)): 73%
kinase still bound, per cent of control [3]: 34%
kinase still bound, per cent of control (KDR (human)): 50%
kinase still bound, per cent of control (LIMK1 (human)): 100%
kinase still bound, per cent of control (MAK (human)): 94%
kinase still bound, per cent of control (MAP2K7 (human)): 14%
kinase still bound, per cent of control (MAP4K3 (human)): 73%
kinase still bound, per cent of control (MAP4K5 (human)): 93%
kinase still bound, per cent of control (MAPK12 (human)): 98%
kinase still bound, per cent of control (MAPK13 (human)): 76%
kinase still bound, per cent of control (MAPK15 (human)): 24%
kinase still bound, per cent of control (MAPK7 (human)): 98%
kinase still bound, per cent of control (MARK3 (human)): 100%
kinase still bound, per cent of control (MERTK (human)): 100%
kinase still bound, per cent of control (NEK2 (human)): 100%
kinase still bound, per cent of control (NEK4 (human)): 83%
kinase still bound, per cent of control (NTRK2 (human)): 51%
kinase still bound, per cent of control (NTRK3 (human)): 93%
kinase still bound, per cent of control (PLK1 (human)): 80%
kinase still bound, per cent of control (SIK2 (human)): 62%
kinase still bound, per cent of control (SIK3 (human)): 78%
kinase still bound, per cent of control (SLK (human)): 100%
kinase still bound, per cent of control (SRPK1 (human)): 39%
kinase still bound, per cent of control (STK25 (human)): 70%
kinase still bound, per cent of control (TLK2 (human)): 100%
kinase still bound, per cent of control (YSK4 (human)): 1.2%

NC(=O)Nc1cc(-c2cccc(F)c2)sc1C(=O)N[C@@H]1CCCNC1
kinase still bound, per cent of control (AXL (human)): 0%
kinase still bound, per cent of control (BMPR1B (human)): 0.1%
kinase still bound, per cent of control (BRSK1 (human)): 4.9%
kinase still bound, per cent of control (CASK (human)): 92%
kinase still bound, per cent of control (CDK4 CCND1 (human)): 75%
kinase still bound, per cent of control (CDKL1 (human)): 46%
kinase still bound, per cent of control (DDR1 (human)): 10%
kinase still bound, per cent of control (DDR2 (human)): 0%
kinase still bound, per cent of control (DSTYK (human)): 1.3%
kinase still bound, per cent of control [1]: 2.4%
kinase still bound, per cent of control (EPHA4 (human)): 3.4%
kinase still bound, per cent of control (EPHA8 (human)): 0.4%
kinase still bound, per cent of control (ERN1 (human)): 25%
kinase still bound, per cent of control [2]: 5.6%
kinase still bound, per cent of control (IKBKB (human)): 2.5%
kinase still bound, per cent of control [3]: 2.5%
kinase still bound, per cent of control (KDR (human)): 0.05%
kinase still bound, per cent of control (LIMK1 (human)): 62%
kinase still bound, per cent of control (MAK (human)): 100%
kinase still bound, per cent of control (MAP2K7 (human)): 80%
kinase still bound, per cent of control (MAP4K3 (human)): 0.35%
kinase still bound, per cent of control (MAP4K5 (human)): 0.4%
kinase still bound, per cent of control (MAPK12 (human)): 89%
kinase still bound, per cent of control (MAPK13 (human)): 100%
kinase still bound, per cent of control (MAPK15 (human)): 19%
kinase still bound, per cent of control (MAPK7 (human)): 80%
kinase still bound, per cent of control (MARK3 (human)): 0.85%
kinase still bound, per cent of control (MERTK (human)): 0.05%
kinase still bound, per cent of control (NEK2 (human)): 75%
kinase still bound, per cent of control (NEK4 (human)): 22%
kinase still bound, per cent of control (NTRK2 (human)): 0.35%
kinase still bound, per cent of control (NTRK3 (human)): 0.2%
kinase still bound, per cent of control (PLK1 (human)): 33%
kinase still bound, per cent of control (SIK2 (human)): 2.6%
kinase still bound, per cent of control (SIK3 (human)): 6.2%
kinase still bound, per cent of control (SLK (human)): 0.05%
kinase still bound, per cent of control (SRPK1 (human)): 1.4%
kinase still bound, per cent of control (STK25 (human)): 0%
kinase still bound, per cent of control (TLK2 (human)): 1.9%
kinase still bound, per cent of control (YSK4 (human)): 0%

COc1ccc(N(C(=O)Oc2c(C)cccc2C)c2ccnc(Nc3ccc(N4CCN(C)CC4)cc3)n2)c(OC)c1
kinase still bound, per cent of control (AXL (human)): 17%
kinase still bound, per cent of control (BMPR1B (human)): 80%
kinase still bound, per cent of control (BRSK1 (human)): 68%
kinase still bound, per cent of control (CASK (human)): 90%
kinase still bound, per cent of control (CDK4 CCND1 (human)): 5.4%
kinase still bound, per cent of control (CDKL1 (human)): 100%
kinase still bound, per cent of control (DDR1 (human)): 0.25%
kinase still bound, per cent of control (DDR2 (human)): 0%
kinase still bound, per cent of control (DSTYK (human)): 49%
kinase still bound, per cent of control [1]: 0%
kinase still bound, per cent of control (EPHA4 (human)): 0%
kinase still bound, per cent of control (EPHA8 (human)): 0.2%
kinase still bound, per cent of control (ERN1 (human)): 62%
kinase still bound, per cent of control [2]: 26%
kinase still bound, per cent of control (IKBKB (human)): 93%
kinase still bound, per cent of control [3]: 84%
kinase still bound, per cent of control (KDR (human)): 15%
kinase still bound, per cent of control (LIMK1 (human)): 0%
kinase still bound, per cent of control (MAK (human)): 69%
kinase still bound, per cent of control (MAP2K7 (human)): 85%
kinase still bound, per cent of control (MAP4K3 (human)): 1.4%
kinase still bound, per cent of control (MAP4K5 (human)): 0.7%
kinase still bound, per cent of control (MAPK12 (human)): 75%
kinase still bound, per cent of control (MAPK13 (human)): 100%
kinase still bound, per cent of control (MAPK15 (human)): 76%
kinase still bound, per cent of control (MAPK7 (human)): 39%
kinase still bound, per cent of control (MARK3 (human)): 4.8%
kinase still bound, per cent of control (MERTK (human)): 20%
kinase still bound, per cent of control (NEK2 (human)): 100%
kinase still bound, per cent of control (NEK4 (human)): 74%
kinase still bound, per cent of control (NTRK2 (human)): 82%
kinase still bound, per cent of control (NTRK3 (human)): 100%
kinase still bound, per cent of control (PLK1 (human)): 100%
kinase still bound, per cent of control (SIK2 (human)): 7.6%
kinase still bound, per cent of control (SIK3 (human)): 22%
kinase still bound, per cent of control (SLK (human)): 0.1%
kinase still bound, per cent of control (SRPK1 (human)): 23%
kinase still bound, per cent of control (STK25 (human)): 61%
kinase still bound, per cent of control (TLK2 (human)): 76%
kinase still bound, per cent of control (YSK4 (human)): 6%
